Data from ChEMBL document CHEMBL1131793, “Discovery of FR166124, a novel water-soluble pyrazolo-[1,5-a]pyridine adenosine A1 receptor antagonist” (Bioorg Med Chem Lett, 1999).

Experiments:
[1] = Water solubility was measured; type: ADME
Adenosine receptor A1 = molecular target: T1, Adenosine receptor A1 (Rattus norvegicus, UniProt P25099); assay: Inhibitory activity against Adenosine A1 Receptor using [3H]CHA in rat cortical membranes; type: cell membranes
T1 sequence (P25099 whole entry): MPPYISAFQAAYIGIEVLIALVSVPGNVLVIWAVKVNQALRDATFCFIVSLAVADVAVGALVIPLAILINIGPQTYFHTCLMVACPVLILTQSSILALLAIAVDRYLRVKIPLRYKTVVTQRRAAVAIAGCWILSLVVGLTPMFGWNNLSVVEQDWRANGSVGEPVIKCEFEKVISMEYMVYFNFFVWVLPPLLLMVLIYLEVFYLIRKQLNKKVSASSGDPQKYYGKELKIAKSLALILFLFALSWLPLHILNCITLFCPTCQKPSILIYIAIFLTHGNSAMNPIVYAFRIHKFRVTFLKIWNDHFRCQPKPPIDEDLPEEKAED

Adenosine receptor A2a = Adenosine receptor A2a (Rattus norvegicus, UniProt P30543); assay: Inhibitory activity against Adenosine A2a receptor using [3H]NECA in rat striatal membranes; type: cell membranes, Striatum, Membrane
Sequence of Adenosine receptor A2a (P30543 whole entry): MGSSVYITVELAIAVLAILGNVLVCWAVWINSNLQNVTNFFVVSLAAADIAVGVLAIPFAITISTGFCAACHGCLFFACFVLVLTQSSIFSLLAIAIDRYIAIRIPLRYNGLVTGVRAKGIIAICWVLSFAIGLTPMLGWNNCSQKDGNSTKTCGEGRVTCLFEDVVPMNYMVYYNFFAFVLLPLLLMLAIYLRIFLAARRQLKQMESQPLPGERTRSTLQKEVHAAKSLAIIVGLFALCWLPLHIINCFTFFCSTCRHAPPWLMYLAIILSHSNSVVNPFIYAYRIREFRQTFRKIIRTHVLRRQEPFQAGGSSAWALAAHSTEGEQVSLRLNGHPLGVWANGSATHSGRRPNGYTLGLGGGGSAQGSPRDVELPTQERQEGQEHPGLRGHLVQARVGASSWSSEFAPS

Row | SMILES | solubility [1] | IC50 (Adenosine receptor A1) | IC50 (Adenosine receptor A2a)
1 | O=C([O-])CC1=C(n2nc(-c3c(-c4ccccc4)nn4ccccc34)ccc2=O)CCCC1.[Na+] | > 200000 µg/mL |  | 
2 | O=C(O)C[C@H]1CCCC[C@H]1n1nc(-c2c(-c3ccccc3)nn3ccccc23)ccc1=O |  | 0.034 µM | 5.5 µM
3 | O=C(O)CCCn1nc(-c2c(-c3ccccc3)nn3ccccc23)ccc1=O |  | 0.12 µM | 5.9 µM
4 | O=C([O-])CCCn1nc(-c2c(-c3ccccc3)nn3ccccc23)ccc1=O.[Na+] | 10000 µg/mL |  | 

Second part, the compound after the results:

Row | solubility [1] | IC50 (Adenosine receptor A1) | IC50 (Adenosine receptor A2a) | SMILES
5 |  | 0.015 µM | 6.2 µM | O=C(O)CC1=C(n2nc(-c3c(-c4ccccc4)nn4ccccc34)ccc2=O)CCCC1
6 |  | 0.011 µM | 0.84 µM | O=C(O)CC1=C(n2nc(-c3c(-c4ccccc4)nn4ccccc34)ccc2=O)CCC1
7 |  | 0.017 µM | 11 µM | O=C(/C=C/c1c(-c2ccccc2)nn2ccccc12)N1CCCC[C@@H]1CCO [FK453]
8 |  | 0.016 µM | 5.5 µM | O=C(O)CC1=C(n2nc(-c3c(-c4ccccc4)nn4ccccc34)ccc2=O)CCCCC1
9 |  | 0.0036 µM | 0.1 µM | O=C(O)C[C@@H]1CCCC[C@H]1n1nc(-c2c(-c3ccccc3)nn3ccccc23)ccc1=O
